# Assay results: article PMC12320284, “Biochemical and biological evaluation of L-glutaminase from Aspergillus tamarii AUMC 10198 via solid-state fermentation” (Microbial Cell Factories, 2025)
# Test system: T1, L-glutaminase (Aspergillus tamarii AUMC 10198)
# T1 construct: gene gtaA; approx. 62 kDa by SDS-PAGE, single band
# Assay: Nesslerization ammonia assay, […] nm; Lineweaver-Burk plot
# Assay type: biochemical
# Details: standard assay conditions (0.1 M citrate-phosphate pH 7, 30 °C, 30 min as described for the crude enzyme); 0.2-2.0 mg/ml L-glutamine; apparent Km
structure (smiles),measurement,value
NC(=O)CC[C@H](N)C(=O)O [L-glutamine],Km,0.28 mg/mL
